SMILES strings stand for the structures.

One may read the IC50 as the concentration that inhibits the measured activity by half. Low values mean inhibition by little substance, high ones a need for much substance.

The target of one assay is T1, PKMYT1 (Homo sapiens, UniProt Q99640).
T1 sequence (Q99640 1-499): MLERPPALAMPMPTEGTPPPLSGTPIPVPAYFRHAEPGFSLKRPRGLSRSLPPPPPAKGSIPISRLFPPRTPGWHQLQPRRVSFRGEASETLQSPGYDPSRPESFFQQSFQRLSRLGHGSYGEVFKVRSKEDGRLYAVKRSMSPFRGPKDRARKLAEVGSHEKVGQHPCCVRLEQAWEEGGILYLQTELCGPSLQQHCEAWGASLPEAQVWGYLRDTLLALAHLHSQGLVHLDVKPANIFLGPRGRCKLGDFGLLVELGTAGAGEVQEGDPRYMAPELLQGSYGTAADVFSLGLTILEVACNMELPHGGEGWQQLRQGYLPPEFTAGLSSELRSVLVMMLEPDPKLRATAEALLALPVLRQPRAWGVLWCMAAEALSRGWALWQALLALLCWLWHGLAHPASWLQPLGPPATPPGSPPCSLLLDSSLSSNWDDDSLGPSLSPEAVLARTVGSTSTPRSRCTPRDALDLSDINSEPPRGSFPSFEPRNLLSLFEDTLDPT
The experiment in a line: PKMYT1 enzyme inhibition assay (LanthaScreen Eu kinase binding method). The note with it: mean of two separate experiments. As for the experimental part:
The PKMYT1 kinase assay was conducted with the LanthaScreen™ Eu kinase binding method, as provided by Thermo Fisher Scientific (Waltham, MA, USA). Initially, compounds were prepared at a concentration of 4 mM in DMSO and subsequently diluted to various concentrations in 1X buffer. […] The plate was then incubated in the dark at 25 °C for 1 h, and fluorescence signals were recorded at 665 nm and 615 nm.
For orientation: TR-FRET usually uses a lanthanide donor and a delayed reading to cut background.

The next assay concerns HCC1569 cells. Nature of the assay: Cell proliferation assay (CCK-8), HCC1569. The class given is cell-based. As to conditions: for IC50: Homo sapiens, HCC1569, 120 h, CCNE1-amplified breast cancer cells, 5-day incubation, mean ± SD, n = 3. As for the experimental part:
(§1) HCC1569 and OVCAR3 cells (2 × 10^3/well) were seeded in 96-well plates and cultured for 24 h at 37 °C, 5% CO2. Compounds at varying concentrations were added, followed by 5-day incubation. Cell viability was assessed using Cell Counting Kit-8 (CCK-8) with absorbance measurement at 450 nm. HCC1569 (BNCC341698) was purchased from BNCC and OVCAR3 (CL-0178) was purchased from Procell.

The test system of the next assay is OVCAR3 cells. The experiment in a line: Cell proliferation assay (CCK-8), OVCAR3. The class given is cell-based. The note with it: for IC50: Homo sapiens, OVCAR-3, 120 h, CCNE1-amplified ovarian cancer cells, 5-day incubation, mean ± SD, n = 3. As to the method:
as §1

A further assay concerns A549 cells. The experiment in a line: Anti-proliferative activity in low-expressing CCNE1 cells A549. The class given is cell-based. The note with it: Homo sapiens, A549; lung cancer cells, low CCNE1 expression; mean ± SD, n = 3.
A further assay relates to BEAS-2B cells. The experiment in a line: Anti-proliferative activity in normal lung epithelial cells BEAS-2B. The class given is cell-based. The note with it: Homo sapiens, BEAS-2B; lung epithelial cells; mean ± SD, n = 3.

The molecule `Cc1ccc(O)c(C)c1NC(=O)c1cnc(Nc2ccccc2)nc1` [Compound M1] had an IC50 on PKMYT1 of 220 nM.

Consider `Cc1ccc(O)c(C)c1NC(=O)c1cnc(Nc2ccccc2)nc1N` [MY-1, 4-amino-2-(phenylamino)-N-(3-hydroxy-2,6-dimethylphenyl)pyrimidine-5-carboxamide], for which the 50% inhibitory concentration (IC50) on PKMYT1 was determined as 26 nM.

`Cc1ccc(O)c(C)c1NC(=O)c1cnc(Nc2ccccc2Cl)nc1N` [MY-2, 4-amino-2-((2-chlorophenyl)amino)-N-(3-hydroxy-2,6-dimethylphenyl)pyrimidine-5-carboxamide] yielded a half-inhibitory concentration (IC50) at PKMYT1 of 150 nM. This IC50 is about 5.8-fold higher than that of the molecule before.

Turning to `Cc1ccc(O)c(C)c1NC(=O)c1cnc(Nc2cccc(Cl)c2)nc1N` [MY-3, 4-amino-2-((3-chlorophenyl)amino)-N-(3-hydroxy-2,6-dimethylphenyl)pyrimidine-5-carboxamide], at PKMYT1, the IC50 was found to be 17 nM.

The molecule `Cc1ccc(O)c(C)c1NC(=O)c1cnc(Nc2ccc(Cl)cc2)nc1N` [MY-4, 4-amino-2-((4-chlorophenyl)amino)-N-(3-hydroxy-2,6-dimethylphenyl)] gave an IC50 at PKMYT1 of 16 nM.

Consider `Cc1ccc(O)c(C)c1NC(=O)c1cnc(Nc2ccc(F)cc2)nc1N` [MY-5, 4-amino-2-((4-fluorophenyl)amino)-N-(3-hydroxy-2,6-dimethylphenyl)pyrimidine-5-carboxamide], for which the IC50 at PKMYT1 came out at 20 nM.

With `Cc1ccc(O)c(C)c1NC(=O)c1cnc(Nc2ccc(Br)cc2)nc1N` [MY-6, 4-amino-2-((4-bromophenyl)amino)-N-(3-hydroxy-2,6-dimethylphenyl)pyrimidine-5-carboxamide], the IC50 at PKMYT1 amounted to 36 nM.

The molecule `Cc1ccc(Nc2ncc(C(=O)Nc3c(C)ccc(O)c3C)c(N)n2)cc1` [MY-7, 4-amino-2-(p-tolylamino)-N-(3-hydroxy-2,6-dimethylphenyl)pyrimidine-5-carboxamide] displayed an IC50 on PKMYT1 of 28 nM. This IC50 and that of the molecule before are within 1.5-fold of each other.

Regarding `Cc1ccc(O)c(C)c1NC(=O)c1cnc(Nc2ccc(C(C)C)cc2)nc1N` [MY-8, 4-amino-2-((4-isopropylphenyl)amino)-N-(3-hydroxy-2,6-dimethylphenyl)pyrimidine-5-carboxamide], at PKMYT1, the IC50 came out at 46 nM.

For `Cc1ccc(O)c(C)c1NC(=O)c1cnc(Nc2ccc(-c3ccccc3)cc2)nc1N` [MY-9, 4-amino-2-([1,1′-biphenyl]-4-ylamino)-N-(3-hydroxy-2,6-dimethylphenyl)pyrimidine-5-carboxamide], the IC50 on PKMYT1 was determined as 32 nM.

In the case of `Cc1ccc(O)c(C)c1NC(=O)c1cnc(Nc2ccc(N3CCOCC3)cc2)nc1N` [MY-10, 4-amino-2-((4-morpholinophenyl)amino)-N-(3-hydroxy-2,6-dimethylphenyl)pyrimidine-5-carboxamide], the IC50 on PKMYT1 was 8.6 nM; in the assay with HCC1569 cells it was 2950 ± 320 nM; in the assay on OVCAR3 cells it was 810 ± 60 nM.

With `Cc1ccc(O)c(C)c1NC(=O)c1cnc(Nc2ccc(N3CCN(C)CC3)cc2)nc1N` [MY-11, 4-amino-2-((4-(4-methylpiperazin-1-yl)phenyl)amino)-N-(3-hydroxy-2,6-dimethylphenyl)pyrimidine-5-carboxamide], the figures for the IC50 at PKMYT1, in the assay with HCC1569 cells and in the assay on OVCAR3 cells were 7.1 nM, 3560 ± 590 nM and 2120 ± 330 nM, respectively.

For `Cc1ccc(O)c(C)c1NC(=O)c1cnc(Nc2ccc([N+](=O)[O-])cc2)nc1N` [MY-12, 4-amino-2-((4-nitrophenyl)amino)-N-(3-hydroxy-2,6-dimethylphenyl)pyrimidine-5-carboxamide], the values for the IC50 on PKMYT1, with HCC1569 cells and with OVCAR3 cells were 5.1 nM, 6350 ± 310 nM and 740 ± 110 nM, respectively.

Regarding `Cc1ccc(O)c(C)c1NC(=O)c1cnc(Nc2ccc(P(C)(C)=O)cc2)nc1N` [MY-13, 4-amino-2-((4-(dimethylphosphoryl)phenyl)amino)-N-(3-hydroxy-2,6-dimethylphenyl)pyrimidine-5-carboxamide], the IC50 at PKMYT1 was 7.9 nM; with HCC1569 cells it was over 8000 nM; in the assay with OVCAR3 cells, over 8000 nM. In addition, the “anti-proliferative activity (in words)” value in the assay with HCC1569 cells (HCC1569) and in the assay on OVCAR3 cells (OVCAR3) was “complete loss of activity” in each case.

`Cc1ccc(O)c(C)c1NC(=O)c1cnc(Nc2ccc(C(=O)N(C)C)cc2)nc1N` [MY-15, 4-amino-2-((4-(dimethylcarbamoyl)phenyl)amino)-N-(3-hydroxy-2,6-dimethylphenyl)pyrimidine-5-carboxamide] had an IC50 on PKMYT1 of 15 nM.

Turning to `Cc1ccc(O)c(C)c1NC(=O)c1cnc(Nc2ccc(C(=O)N3CCOCC3)cc2)nc1N` [MY-16, 4-amino-2-((4-(morpholine-4-carbonyl)phenyl)amino)-N-(3-hydroxy-2,6-dimethylphenyl)pyrimidine-5-carboxamide], the results for the IC50 on PKMYT1, in the assay on HCC1569 cells and in the assay on OVCAR3 cells were 6.1 nM, over 8000 nM and 1190 ± 90 nM, respectively.

Consider `Cc1ccc(O)c(C)c1NC(=O)c1cnc(Nc2ccc3c(c2)CN(C)C3=O)nc1N` [MY-17, 4-amino-2-((2-methyl-1-oxoisoindolin-5-yl)amino)-N-(3-hydroxy-2,6-dimethylphenyl)pyrimidine-5-carboxamide], for which the IC50 on PKMYT1 was 3.3 nM; in the assay with HCC1569 cells, over 8000 nM; with OVCAR3 cells it was 980 ± 70 nM.

`Cc1ccc(O)c(C)c1NC(=O)c1cnc(Nc2ccc3ccoc3c2)nc1N` [MY-18, 4-amino-2-(benzofuran-6-ylamino)-N-(3-hydroxy-2,6-dimethylphenyl)pyrimidine-5-carboxamide]: the IC50 on PKMYT1 came to 8.5 nM; in the assay with HCC1569 cells, 6970 ± 1090 nM; in the assay with OVCAR3 cells, 3310 ± 180 nM.

As to `Cc1ccc(O)c(C)c1NC(=O)c1cnc(Nc2ccc3ncsc3c2)nc1N` [MY-19, 4-amino-2-(benzo[d]thiazol-6-ylamino)-N-(3-hydroxy-2,6-dimethylphenyl)pyrimidine-5-carboxamide], the IC50 on PKMYT1 came to 3.5 nM; with HCC1569 cells it was 3140 ± 280 nM; with OVCAR3 cells, 1250 ± 60 nM.

Take `Cc1ccc(O)c(C)c1NC(=O)c1cnc(Nc2ccc3scnc3c2)nc1N` [MY-20, 4-amino-2-(benzo[d]thiazol-5-ylamino)-N-(3-hydroxy-2,6-dimethylphenyl)pyrimidine-5-carboxamide]: the half-inhibitory concentration (IC50) on PKMYT1 worked out at 5.7 nM; in the assay on HCC1569 cells it was 3540 ± 210 nM; in the assay on OVCAR3 cells it was 600 ± 90 nM.

`Cc1ccc(O)c(C)c1NC(=O)c1cnc(Nc2ccc3occc3c2)nc1N` [MY-21, 4-amino-2-(benzofuran-5-ylamino)-N-(3-hydroxy-2,6-dimethylphenyl)pyrimidine-5-carboxamide] had an IC50 at PKMYT1 of 12 nM.

Turning to `Cc1cc2c(C(N)=O)c(N)n(-c3c(C)ccc(O)c3C)c2nc1C` [RP-6306, reference compound], the IC50 in the assay on HCC1569 cells is 110 ± 20 nM; in the assay on OVCAR3 cells, 90 ± 10 nM; in the assay with A549 cells, 1450 ± 230 nM; in the assay on BEAS-2B cells, 2600 ± 540 nM.

The record behind these values is PMC12467068, “Design, Synthesis, and Computational Insights into PKMYT1 Inhibitors for the Treatment of Breast Cancer” (Biomedicines, 2025).
